Square brackets hold non-standard residues; d marks the D form. Peptide text beside a SMILES is read from it.
Experiments:
PaMurF = target: T1, PaMurF (Pseudomonas aeruginosa, UniProt Q9EY48); assay: coupled ADP-release assay, tripeptide made in situ by MurE; format: biochemical; conditions: with UDP-MurNAc-D,L-DAP tripeptide (made in situ by MurE) and ATP
T1 construct: gene murF; recombinant, overexpressed and purified as in Majce et al. 2013
T1 sequence (Q9EY48 1-458): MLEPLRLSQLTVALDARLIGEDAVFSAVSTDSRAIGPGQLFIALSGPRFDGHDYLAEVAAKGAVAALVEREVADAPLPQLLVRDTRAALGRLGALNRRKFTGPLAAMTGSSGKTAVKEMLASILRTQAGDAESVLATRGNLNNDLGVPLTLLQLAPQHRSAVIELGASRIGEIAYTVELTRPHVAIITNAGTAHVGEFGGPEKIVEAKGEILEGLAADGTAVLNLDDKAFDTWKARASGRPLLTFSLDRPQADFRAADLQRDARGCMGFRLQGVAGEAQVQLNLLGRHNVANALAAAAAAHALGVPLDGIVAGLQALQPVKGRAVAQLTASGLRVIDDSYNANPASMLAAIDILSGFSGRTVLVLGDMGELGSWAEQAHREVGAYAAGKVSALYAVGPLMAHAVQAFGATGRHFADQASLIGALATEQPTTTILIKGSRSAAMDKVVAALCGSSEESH

[1] = target: T2, Streptococcus pneumoniae Pn16 MurE (Streptococcus pneumoniae, UniProt Q8CWQ5); assay: coupled pyruvate kinase/lactate dehydrogenase ADP-release assay, A340; format: biochemical; conditions: 150 µM L-Lys, 375 µM UDP-MurNAc-dipeptide, ATP; 37 °C
T2 construct: recombinant, overexpressed and purified as in Blewett et al. 2004
T2 sequence (Q8CWQ5 1-481): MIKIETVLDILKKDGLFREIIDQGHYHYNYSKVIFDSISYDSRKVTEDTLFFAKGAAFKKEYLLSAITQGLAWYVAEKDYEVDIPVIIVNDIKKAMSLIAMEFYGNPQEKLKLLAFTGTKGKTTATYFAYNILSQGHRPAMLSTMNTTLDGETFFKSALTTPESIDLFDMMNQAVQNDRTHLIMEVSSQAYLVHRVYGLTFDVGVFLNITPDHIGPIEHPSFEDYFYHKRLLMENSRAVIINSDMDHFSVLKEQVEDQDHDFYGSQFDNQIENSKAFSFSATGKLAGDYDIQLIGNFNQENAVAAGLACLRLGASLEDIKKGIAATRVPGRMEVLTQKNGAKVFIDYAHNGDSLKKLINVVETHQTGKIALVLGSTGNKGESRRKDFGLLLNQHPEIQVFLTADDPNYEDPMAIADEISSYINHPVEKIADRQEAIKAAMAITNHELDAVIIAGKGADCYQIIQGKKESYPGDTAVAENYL

In the case of C[C@@H](N)C(=O)N[C@H](C)C(=O)O [D-Ala–D-Ala] (H-[dA]-[dA]-OH), the “coupled ADP-release assay, tripeptide made in situ by MurE” value (PaMurF) is reported as “MurF ligase with D-Ala–D-Ala as the second substrate”.

For CC(=O)N[C@H]1[C@@H](OP(=O)(O)OP(=O)(O)OC[C@H]2O[C@@H](n3ccc(=O)[nH]c3=O)[C@H](O)[C@@H]2O)O[C@H](CO)[C@@H](O)[C@@H]1O[C@H](C)C(=O)N[C@@H](C)C(=O)N[C@H](CCC(=O)O)C(=O)O [UDP-MurNAc-Ala-Glu, Uridine diphospho N-acetylmuramyl-L-alanyl-D-glutamate], the “coupled pyruvate kinase/lactate dehydrogenase ADP-release assay, A340” value [1] was “lysylation of UDP-MurNAc-Ala-Glu was also assayed with the L-Lys-specific Streptococcus pneumoniae Pn16 MurE”.
